Tested on: Mycobacterium tuberculosis (adjuvant) induced arthritis
Test: Adjuvant induced arthritis in rats, histopathology of paw/ankle joint tissue
Type: in vivo, Albino Wistar rats
Details: for Histopathology of rat paw tissue: articular cartilage / Histopathology of rat paw tissue: granulomas / Histopathology of rat paw tissue: synovial tissue: adjuvant arthritic rats, H&E stain
Protocol: Pathological damage: Adjuvant induced arthritis in animal models
Animals used: Albino Wistar rats of either sex
Weight of the animals: 140-180 grams
Number of animals/group: 5
Methodology: Chronic arthritis was induced in rats by the injection of 0.05 mL of (0.5% w/v) suspension of killed Mycobacterium tuberculosis, homogenized in liquid paraffin in the left hind foot.
Right ankle joints of the animals in the control and treated groups were separated from the hind paw, weighed and immersed in 10% buffered formalin for 24 hours, followed by decalcification in 10% EDTA. The joints were then dehydrated, processed and paraffin (56 C-58 C) blocks were prepared, stained (hematoxylin and eosin) and examined under the compound microscope (Patel P, Patel D, Patel N. Experimental investigation of anti-rheumatoid activity of Pleurotus sajorcaju in adjuvant-induced arthritic rats. Chinese Journal of Natural Medicines, 2012; 10 (4): 0269-0274.

COc1cc(/C=C/C(=O)COC(=O)/C=C/c2ccc(O)c(OC)c2)ccc1O [Calebin A]
Histopathology of rat paw tissue: articular cartilage (Calebin A 10 mg/kg per oral): intact articular cartilage with synovial tissue in the joint | Histopathology of rat paw tissue: granulomas (Calebin A 10 mg/kg per oral): No granulomas were seen | Histopathology of rat paw tissue: synovial tissue (Calebin A 10 mg/kg per oral): congested vascular spaces (Long-Arrows), scattered lymphocytes (Short-Arrow) and intact synovial lining | Histopathology of rat paw tissue: articular cartilage (Calebin A 20 mg/kg per oral): intact articular cartilage with synovial tissue in the joint | Histopathology of rat paw tissue: granulomas (Calebin A 20 mg/kg per oral): No granulomas were seen | Histopathology of rat paw tissue: synovial tissue (Calebin A 20 mg/kg per oral): mild synovial epithelial hyperplasia (Short-Arrow), scattered lymphocytes (Long-Arrow) and intact vascular spaces | Protection of articular cartilage (histopathological studies, overall) (arthritic rats, across doses): dose dependant protection of articular cartilage

Reference: patent publication US9220703B2, “Composition and method for the protection of articular cartilage” (priority 2014, dated 2015)
